5 compounds from patent US12029797B2, “Fatty acid derivative labeled with positron-emitting radionuclide” (ASTELLAS PHARMA INC., priority 2018, dated 2024) can be followed below.

“Also recorded” adds a separate entry of the source.

Type in all cases: in vivo
Data set [1] has as its system normal cynomolgus monkeys. As to the kind of experiment: PET test using normal cynomolgus monkey (SUV in heart muscle and bone ROI). As to conditions: for SUV (Bone): bone ROI (near the spine), n.d. = target organ cannot be confirmed in the image, ROI cannot be set; for accumulation to the heart muscle compared to [^18F]FTO / non-specific accumulation to the bone compared to [^18F]FTO: cynomolgus monkey PET, result in words; for SUV (Heart muscle): heart muscle ROI, about 300 MBq lower extremity vein, male cynomolgus monkey. An excerpt:
Solutions containing each compound prepared in Example 1 (7-[^18F]FTO), Example 2 (6-[^18F]FTO), Reference Example 4 ([^18F]FTO), Reference Example 5 (15-[^18F]FTO), and Reference Example 6 (17-[^18F]FTO) were used to perform a heart contrast PET test using normal cynomolgus monkeys.
For performing non-invasive PET imaging, in a state in which a male cynomolgus monkey was anesthetized with inhalation anesthetic isoflurane, the monkey was held at a supine body position on a PET camera SHR17000 (manufactured by Hamamatsu Photonics K.K.), the solution containing each compound (about 300 MBq) was administered from the lower extremity vein, and continuous imaging was performed for 180 minutes or 240 minutes after the administration. The PET images were reconstructed by dynamic row-action maximum likelihood algorithm (DRAMA) and average images are obtained every 20 minutes. Then, the region of interest (ROI) was set in the heart muscle region or bone (near the spine), and the accumulation (standardized uptake value (SUV)) of each compound was calculated as {radioactivity count in the ROI (MBq/cc)/[dose (MBq)/body weight (g)]}.
The SUV values quantified by setting the ROI for the heart muscle and the bone of each compound are shown in Tables 6 and 7 as SUV (heart muscle) and SUV (bone). […] A case where the target organ cannot be confirmed in the image and the ROI cannot be set is denoted as n.d, and a case where measurement is not performed is denoted as n.t. In addition, MIP (Maximum Intensity Projection) PET images 60 minutes and 240 minutes after the administration of the compounds of Reference Example 4 ([^18F]FTO) and Example 1 (7-[^18F]FTO) are shown in FIG. 1.

The subject of a further data set is DBA2 mouse. The data set is described as follows: PET test using normal mouse; radioactivity of isolated heart and femur by gamma counter. As to conditions: for SUV Femur: isolated femur; for SUV Femur / SUV Heart: 120 minutes after administration, about 10 MBq tail vein, male DBA2 mouse, gamma counter, average ± standard error of 5 cases; for SUV Heart: isolated heart. How it is done: A whole body contrast PET test was performed using the solution containing the compound of Example 1 (7-[^18F]FTO) or Reference Example 4 ([^18F]FTO) using a DBA2 mouse.
For performing non-invasive PET imaging, in a state in which a male DBA2 mouse was anesthetized with the inhalation anesthetic isoflurane, the mouse was held in a supine body position on a PET camera Inveon (manufactured by Siemens), the solution containing each compound (about 10 MBq) was administered from the tail vein, and after 90 minutes from the administration, PET imaging was performed for 5 minutes. The PET image was reconstructed and then image processing was performed. The heart and femur were isolated 120 minutes after the administration, and the amount of radioactivity was measured with a gamma counter 2480 WIZARD^2 (manufactured by PerkinElmer Inc.). The accumulation (SUV) of each compound was calculated as {radioactivity count (MBq/cc)/[dose (MBq)/body weight (g)] in the target organ}.

Data set [2] deals with myocardial infarction model rat. The data set is described as follows: PET test using model rat with myocardial infarction by coronary artery ligation. As to conditions: male SD rat, about 10 MBq tail vein, 20 minutes after administration, versus untreated rat. How it is done: A myocardial infarction model was prepared by coronary artery ligation using SD rats, and a thoracic contrast PET test was performed using the solution containing the compound of Example 1 (7-[^18F]FTO).
In a state in which an untreated rat or a model rat with myocardial infarction was anesthetized with the inhalation anesthetic isoflurane using a male SD rat, the rat was held in a supine body position on a PET camera Inveon (manufactured by Siemens), and the solution containing the compound (about 10 MBq) was administered from the tail vein. After 20 minutes from the administration, PET imaging was performed for 5 minutes. The PET image was reconstructed and then image processing was performed.

Where [3] appears, read: 20 Minutes after administration.
Where [4] appears, read: 60 Minutes after administration.
Where [5] appears, read: 120 Minutes after administration.
The mark [6] stands for this setting: 240 Minutes after administration.
Where [7] appears, read: mouse, extracted organs, result in words.

In the case of `CCCCCCCC/C=C\CCC([18F])CSCCC(=O)O` (stereo not shown) [Example 2, 3-{[(5Z)-2-[^18F]fluorotetradeca-5-en-1-yl]sulfanyl}propanoic acid], the “SUV (Bone)” value is 1.56 in data set [1] (setting [3]), 1.96 in data set [1] (setting [4]) and 2.49 in data set [1] (setting [5]). Also, in data set [1], the “accumulation to the heart muscle compared to [^18F]FTO” value is on record as “further increased”. In data set [1], the “non-specific accumulation to the bone compared to [^18F]FTO” value is “equivalent or reduced”. In addition, the “SUV (Heart muscle)” value is 8.35 in data set [1] (setting [3]), 7.25 in data set [1] (setting [4]) and 6.60 in data set [1] (setting [5]).

Turning to `CCCC([18F])CCCC/C=C\CCCCSCCC(=O)O` (stereo not shown) [Reference Example 5, 3-{[(5Z)-11-[^18F]fluorotetradeca-5-en-1-yl]sulfanyl}propanoic acid], the “SUV (Bone)” value is reported as 1.27 in data set [1] (setting [3]), 1.17 in data set [1] (setting [4]), 1.54 in data set [1] (setting [5]) and 2.10 in data set [1] (setting [6]). In addition, the “accumulation to the heart muscle compared to [^18F]FTO” value in data set [1] was “slightly reduced”. In data set [1] (listed as 15-[^18F]FTO), the “non-specific accumulation to the bone compared to [^18F]FTO” value is recorded as “equivalent or reduced; also recorded: the accumulation in the bone was also observed”. Besides, the “SUV (Heart muscle)” value in data set [1] (setting [3]) stood at 4.79; in data set [1] (setting [4]), 3.60; in data set [1] (setting [5]) it was 3.21; in data set [1] (setting [6]), 2.78.

As for `CC([18F])CCCCCC/C=C\CCCCSCCC(=O)O` (stereo not shown) [Reference Example 6, 3-{[(5Z)-13-[^18F]fluorotetradeca-5-en-1-yl]sulfanyl}propanoic acid], the “SUV (Bone)” value in data set [1] (setting [3]) came to 1.11; in data set [1] (setting [4]), 1.28; in data set [1] (setting [5]), 1.94; in data set [1] (setting [6]), 3.23. Further, the “accumulation to the heart muscle compared to [^18F]FTO” value in data set [1] is listed as “slightly reduced”. For the same compound, the “non-specific accumulation to the bone compared to [^18F]FTO” value in data set [1] (listed as 17-[^18F]FTO) is “equivalent or reduced; also recorded: the accumulation in the bone was also observed”. Moreover, the “SUV (Heart muscle)” value in data set [1] (setting [3]) is 5.88; in data set [1] (setting [4]), 5.78; in data set [1] (setting [5]), 4.86; in data set [1] (setting [6]), 2.60.

For `O=C(O)CCSCCCC/C=C\CCCCCCCC[18F]` [Reference Example 4, 3-{[(5Z)-14-[^18F]fluorotetradeca-5-en-1-yl]sulfanyl}propanoic acid, reference compound], the “SUV (Bone)” value in data set [1] (setting [3]) is 1.42 ± 0.10; in data set [1] (setting [4]) it was 2.27 ± 0.13; in data set [1] (setting [5]) it was 3.82 ± 0.60; in data set [1] (setting [6]), 6.15 ± 1.02. Also, the “SUV (Heart muscle)” value in data set [1] (setting [3]) amounted to 6.45 ± 0.59; in data set [1] (setting [4]) it was 6.54 ± 0.51; in data set [1] (setting [5]), 5.90 ± 0.58; in data set [1] (setting [6]), 4.63 ± 0.57. Further, the “SUV Femur” value with DBA2 mouse is 2.03 ± 0.32. Also, the “SUV Heart” value in the data set with DBA2 mouse amounted to 1.52 ± 0.25.

For the compound `CCCCCCCC/C=C\CC([18F])CCSCCC(=O)O` (stereo not shown) [Example 1, 3-{[(5Z)-3-[^18F]fluorotetradeca-5-en-1-yl]sulfanyl}propanoic acid], the “accumulation to the heart muscle compared to [^18F]FTO” value in data set [1] is reported as “further increased”. In data set [1] (listed as 7-[^18F]FTO), the “non-specific accumulation to the bone compared to [^18F]FTO” value is “equivalent or reduced; also recorded: not detected at all”. In addition, the “SUV (Heart muscle)” value in data set [1] (setting [3]) amounted to 8.46; in data set [1] (setting [4]), 9.26; in data set [1] (setting [5]), 8.85; in data set [1] (setting [6]), 8.35. Further, the “SUV Femur” value in the data set with DBA2 mouse came to 0.48 ± 0.04. The “SUV Heart” value with DBA2 mouse is recorded as 3.53 ± 0.77. Besides, the “accumulation to the heart compared to Reference Example 4” value in the data set on DBA2 mouse (setting [7]) is listed as “excellent accumulation to the heart”. The “non-specific accumulation in the bone compared to Reference Example 4” value in the data set on DBA2 mouse (setting [7]) is “low non-specific accumulation in the bone”. The “coronal section PET image of the heart in the myocardial infarction model rat” value in data set [2] was “the signal was deleted in a part of the elliptical heart”.
